From patent publication US8962596B2 (Array BioPharma Inc., priority 2010, dated 2015)
Counter-ions that a name gives are not always drawn.

What was measured:
Format in all cases: biochemical
Human Tyk2 kinase domain = biological target: T1, Human Tyk2 kinase domain (Homo sapiens, UniProt P29597); test: Tyk2 Inhibition Assay (Omnia kinase fluorescence peptide substrate assay); conditions: averaged IC50 ranges; assay of Example A; 10 μM (Km app) or 1 mM ATP, 2 nM Tyk2
T1 construct: comprising amino acids 886 to 1187 with 10 additional histidine residues; 10xHis (histidine tag) (C, cleaved yes); made in house
T1 sequence (P29597 886-1187): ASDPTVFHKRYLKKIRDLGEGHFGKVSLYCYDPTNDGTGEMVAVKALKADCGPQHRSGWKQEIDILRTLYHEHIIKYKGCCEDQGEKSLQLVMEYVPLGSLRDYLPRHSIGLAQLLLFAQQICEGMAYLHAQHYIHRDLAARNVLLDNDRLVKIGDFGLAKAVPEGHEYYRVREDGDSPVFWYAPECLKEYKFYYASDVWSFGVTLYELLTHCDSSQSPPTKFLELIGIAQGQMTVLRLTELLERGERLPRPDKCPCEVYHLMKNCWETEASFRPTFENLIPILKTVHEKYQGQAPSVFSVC
Procedure, shortened: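 2 nM His-tag-cleaved kinase domain (aa 886–1187) with 8 μM Omnia Y12 peptide, 10 μM (Km app) or 1 mM ATP, pH 7.4 HEPES/10 mM MgCl2, 2% DMSO. Fluorescence (ex 360/em 485 nm) every 50 s for 45 min; IC50 from 4-parameter fit of POC, top dose 10 μM.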

JAK1 = biological target: T2, JAK1 (Homo sapiens, UniProt P23458); test: JAK1 Inhibition Assay (Omnia kinase fluorescence peptide substrate assay); conditions: averaged IC50 ranges; assay of Example B; 40 μM (Km app) or 1 mM ATP, 15 nM JAK1
T2 construct: purchased Invitrogen Corporation, Carlsbad, Calif; PV4775
T2 sequence (P23458 whole entry): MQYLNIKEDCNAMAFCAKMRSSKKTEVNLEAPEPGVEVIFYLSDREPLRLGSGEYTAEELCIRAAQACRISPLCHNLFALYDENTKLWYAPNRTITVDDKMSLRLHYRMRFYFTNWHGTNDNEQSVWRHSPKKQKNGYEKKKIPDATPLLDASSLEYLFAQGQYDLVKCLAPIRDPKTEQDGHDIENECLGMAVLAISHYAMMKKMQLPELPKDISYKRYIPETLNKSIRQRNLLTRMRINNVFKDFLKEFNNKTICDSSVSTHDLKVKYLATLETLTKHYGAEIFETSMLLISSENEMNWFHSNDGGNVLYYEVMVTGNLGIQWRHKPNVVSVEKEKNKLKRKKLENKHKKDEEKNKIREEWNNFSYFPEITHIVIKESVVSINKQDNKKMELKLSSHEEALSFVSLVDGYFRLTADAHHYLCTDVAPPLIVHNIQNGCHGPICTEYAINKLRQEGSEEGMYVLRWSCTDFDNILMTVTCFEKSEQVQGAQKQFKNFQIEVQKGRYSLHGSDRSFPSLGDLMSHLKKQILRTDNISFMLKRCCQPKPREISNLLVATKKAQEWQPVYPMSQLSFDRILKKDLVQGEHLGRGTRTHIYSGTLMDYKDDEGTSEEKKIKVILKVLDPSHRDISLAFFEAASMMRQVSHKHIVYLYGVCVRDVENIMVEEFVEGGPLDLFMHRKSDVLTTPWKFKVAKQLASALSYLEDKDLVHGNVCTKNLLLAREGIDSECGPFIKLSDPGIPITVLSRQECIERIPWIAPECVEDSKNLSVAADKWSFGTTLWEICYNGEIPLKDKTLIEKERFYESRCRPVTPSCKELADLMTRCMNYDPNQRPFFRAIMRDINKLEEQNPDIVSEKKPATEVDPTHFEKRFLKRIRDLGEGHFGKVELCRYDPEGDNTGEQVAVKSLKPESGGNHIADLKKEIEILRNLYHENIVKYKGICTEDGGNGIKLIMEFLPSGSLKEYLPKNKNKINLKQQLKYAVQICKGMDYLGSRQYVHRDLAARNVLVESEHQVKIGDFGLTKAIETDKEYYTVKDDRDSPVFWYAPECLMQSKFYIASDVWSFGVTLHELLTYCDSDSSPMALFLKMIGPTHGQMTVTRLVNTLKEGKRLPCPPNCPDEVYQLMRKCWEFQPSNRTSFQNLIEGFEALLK

JAK2 = biological target: T3, JAK2 (Homo sapiens, UniProt O60674); test: JAK2 Inhibition Assay (Omnia kinase fluorescence peptide substrate assay); conditions: averaged IC50 ranges; assay of Example C; 25 μM (Km app) or 1 mM ATP, 5 nM JAK2
T3 construct: purchased Invitrogen Corporation, Carlsbad, Calif; PV4288
T3 sequence (O60674 whole entry): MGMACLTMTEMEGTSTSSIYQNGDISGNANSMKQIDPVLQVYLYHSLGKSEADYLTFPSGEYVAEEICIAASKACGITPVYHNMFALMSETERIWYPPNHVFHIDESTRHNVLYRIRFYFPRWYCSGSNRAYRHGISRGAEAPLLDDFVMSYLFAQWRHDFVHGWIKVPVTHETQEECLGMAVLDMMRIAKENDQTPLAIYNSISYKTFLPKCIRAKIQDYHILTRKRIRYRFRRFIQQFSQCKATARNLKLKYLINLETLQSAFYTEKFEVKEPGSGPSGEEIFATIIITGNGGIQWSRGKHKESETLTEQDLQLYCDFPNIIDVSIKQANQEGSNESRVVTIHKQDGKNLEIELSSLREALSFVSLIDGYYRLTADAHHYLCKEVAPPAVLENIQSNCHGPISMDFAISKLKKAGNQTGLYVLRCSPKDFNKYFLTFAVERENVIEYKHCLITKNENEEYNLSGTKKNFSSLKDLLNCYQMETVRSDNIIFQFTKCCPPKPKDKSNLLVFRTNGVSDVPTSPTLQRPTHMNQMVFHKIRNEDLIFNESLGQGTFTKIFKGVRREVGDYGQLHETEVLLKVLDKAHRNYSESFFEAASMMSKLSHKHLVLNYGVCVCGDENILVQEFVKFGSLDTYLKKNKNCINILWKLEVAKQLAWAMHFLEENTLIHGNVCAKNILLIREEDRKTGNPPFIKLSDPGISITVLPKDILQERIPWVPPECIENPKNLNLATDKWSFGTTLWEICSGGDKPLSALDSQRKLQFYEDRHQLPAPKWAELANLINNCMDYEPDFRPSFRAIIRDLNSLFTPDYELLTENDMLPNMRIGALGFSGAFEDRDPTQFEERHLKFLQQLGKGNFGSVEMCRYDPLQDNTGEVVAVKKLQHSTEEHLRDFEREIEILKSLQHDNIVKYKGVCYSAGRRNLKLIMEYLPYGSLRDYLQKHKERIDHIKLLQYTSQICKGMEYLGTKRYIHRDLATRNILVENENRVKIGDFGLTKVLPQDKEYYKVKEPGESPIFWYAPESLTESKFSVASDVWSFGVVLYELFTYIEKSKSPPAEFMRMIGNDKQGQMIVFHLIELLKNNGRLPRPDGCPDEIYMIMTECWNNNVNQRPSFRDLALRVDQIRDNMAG
Procedure, shortened: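 5 nM JAK2 phosphorylated 10 μM Omnia Y7 peptide with ATP at 25 μM (Km app) or 1 mM, in 25 mM HEPES pH 7.4, 10 mM MgCl2, 0.01% Triton X-100, 1 mM DTT, 2% DMSO. Fluorescence (360/485 nm) was read every 50 s for 45 min. 10-point 3-fold series from 10 μM; POC versus uninhibited and background controls, 4-parameter logistic IC50.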

JAK3 = biological target: T4, JAK3 (Homo sapiens, UniProt P52333); test: JAK3 Inhibition Assay (Omnia kinase fluorescence peptide substrate assay); conditions: averaged IC50 ranges; assay of Example D; 10 μM (Km app) or 1 mM ATP, 2.5 nM JAK3
T4 construct: purchased Invitrogen Corporation, Carlsbad, Calif; PV4080
T4 sequence (P52333 1-1124): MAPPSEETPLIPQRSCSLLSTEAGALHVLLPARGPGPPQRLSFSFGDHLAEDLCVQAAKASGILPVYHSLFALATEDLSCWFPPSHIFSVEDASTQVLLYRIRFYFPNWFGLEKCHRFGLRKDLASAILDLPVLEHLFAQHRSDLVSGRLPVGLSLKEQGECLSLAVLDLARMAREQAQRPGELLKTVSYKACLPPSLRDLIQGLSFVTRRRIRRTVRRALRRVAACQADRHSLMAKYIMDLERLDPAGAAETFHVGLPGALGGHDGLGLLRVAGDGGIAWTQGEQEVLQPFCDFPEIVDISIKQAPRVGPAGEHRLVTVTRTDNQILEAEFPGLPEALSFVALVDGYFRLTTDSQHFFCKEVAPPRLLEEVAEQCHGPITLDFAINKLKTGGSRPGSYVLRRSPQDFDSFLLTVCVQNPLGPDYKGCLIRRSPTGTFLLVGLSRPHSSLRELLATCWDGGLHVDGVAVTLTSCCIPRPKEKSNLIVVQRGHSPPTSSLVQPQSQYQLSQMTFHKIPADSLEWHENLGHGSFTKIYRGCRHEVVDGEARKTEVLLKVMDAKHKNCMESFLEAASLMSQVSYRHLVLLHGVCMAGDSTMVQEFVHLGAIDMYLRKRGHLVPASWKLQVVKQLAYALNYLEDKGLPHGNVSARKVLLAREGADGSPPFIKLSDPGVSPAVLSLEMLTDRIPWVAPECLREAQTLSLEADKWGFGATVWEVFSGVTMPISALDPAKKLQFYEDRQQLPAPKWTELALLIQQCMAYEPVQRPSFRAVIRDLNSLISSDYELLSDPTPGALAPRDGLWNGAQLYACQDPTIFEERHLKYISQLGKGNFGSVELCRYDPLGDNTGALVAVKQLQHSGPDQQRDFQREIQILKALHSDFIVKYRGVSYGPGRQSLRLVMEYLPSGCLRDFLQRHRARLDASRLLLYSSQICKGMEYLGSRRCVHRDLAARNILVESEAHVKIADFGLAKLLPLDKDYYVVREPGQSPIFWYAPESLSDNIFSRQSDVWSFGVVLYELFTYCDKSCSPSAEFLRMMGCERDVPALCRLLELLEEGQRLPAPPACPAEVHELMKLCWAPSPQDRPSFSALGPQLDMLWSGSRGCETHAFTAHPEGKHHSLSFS
Procedure, shortened: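 Kinase at 2.5 nM with 10 µM Omnia Y7 peptide and 10 µM (Km app) or 1 mM ATP in 25 mM HEPES pH 7.4, 10 mM MgCl2, 1 mM DTT, 0.01% Triton X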

Compound | IC50 (Human Tyk2 kinase domain) [nM] | IC50 (JAK1) [nM] | IC50 (JAK2) [nM] | IC50 (JAK3) [nM]
Cn1ccc(-c2cc3nccn3c(-c3ccn(C4(CC#N)CN(CC(F)(F)F)C4)n3)n2)cc1=O [Example 144, 2-(3-(3-(7-(1-methyl-2-oxo-1,2-dihydropyridin-4-yl)imidazo[1,2-c]pyrimidin-5-yl)-1H-pyrazol-1-yl)-1-(2,2,2-trifluoroethyl)azetidin-3-yl)acetonitrile] | 10 to 100 | > 1000 | 100 to 1000 | > 1000
N#CCC(C1CC1)n1cc(-c2nc(-c3cnn(Cc4cccnc4)c3)cc3nccn23)cn1 (centres unmarked) [Example 35, 3-cyclopropyl-3-(4-(7-(1-(pyridin-3-ylmethyl)-1H-pyrazol-4-yl)imidazo[1,2-c]pyrimidin-5-yl)-1H-pyrazol-1-yl)propanenitrile] | < 10 | 100 to 1000 | 10 to 100 | 100 to 1000
CC(C)Cn1cc(-c2cc3nccn3c(-c3cnn(C(CC#N)C4CC4)c3)n2)cn1 (centres unmarked) [Example 37, 3-cyclopropyl-3-(4-(7-(1-isobutyl-1H-pyrazol-4-yl)imidazo[1,2-c]pyrimidin-5-yl)-1H-pyrazol-1-yl)propanenitrile] | 10 to 100 | 100 to 1000 | 10 to 100 | > 1000
CC(=O)N1CCC(CC#N)(n2cc(-c3nc(-c4cnn(C)c4)cc4nccn34)cn2)C1 (centres unmarked) [Example 134, 2-(1-acetyl-3-(4-(7-(1-methyl-1H-pyrazol-4-yl)imidazo[1,2-c]pyrimidin-5-yl)-1H-pyrazol-1-yl)pyrrolidin-3-yl)acetonitrile] | 100 to 1000 | > 1000 | 100 to 1000 | > 1000
N#CCC(C1CC1)n1cc(-c2nc(-c3cnn(C4CCOCC4)c3)cc3nccn23)cn1 (centres unmarked) [Example 36, 3-cyclopropyl-3-(4-(7-(1-(tetrahydro-2H-pyran-4-yl)-1H-pyrazol-4-yl)imidazo[1,2-c]pyrimidin-5-yl)-1H-pyrazol-1-yl)propanenitrile] | < 10 | 100 to 1000 | 10 to 100 | 100 to 1000
Cn1cc(-c2cc3nccn3c(-c3ccn(C4(CC#N)CNC4)n3)n2)cn1 [Example 130, 2-(3-(3-(7-(1-Methyl-1H-pyrazol-4-yl)imidazo[1,2-c]pyrimidin-5-yl)-1H-pyrazol-1-yl)azetidin-3-yl)acetonitrile hydrochloride] | 100 to 1000 | > 1000 | 100 to 1000 | > 1000
Cn1cc(-c2cc3nccn3c(-c3cnn(C(CC#N)C4CC4(F)F)c3)n2)cn1 (mixture of isomers) [Example 147, 3-(2,2-difluorocyclopropyl)-3-(4-(7-(1-methyl-1H-pyrazol-4-yl)imidazo[1,2-c]pyrimidin-5-yl)-1H-pyrazol-1-yl)propanenitrile] | < 10 | 10 to 100 | 10 to 100 | 100 to 1000
Cn1cc(-c2cc3nccn3c(-c3cnn(C4(CC#N)CN(C5COC5)C4)c3)n2)cn1 [Example 67, 2-(3-(4-(7-(1-Methyl-1H-pyrazol-4-yl)imidazo[1,2-c]pyrimidin-5-yl)-1H-pyrazol-1-yl)-1-(oxetan-3-yl)azetidin-3-yl)acetonitrile] | 10 to 100 | > 1000 | 100 to 1000 | > 1000
N#CCCn1cc(-c2nc(-c3ccc(N4CCOCC4)cc3)cc3nccn23)cn1 [Example 120, 3-(4-(7-(4-morpholinophen-yl)imidazo[1,2-c]pyrimidin-5-yl)-1H-pyrazol-1-yl)propanenitrile] | < 10 | 10 to 100 | 10 to 100 | > 1000
CC(C)(CC#N)n1cc(-c2nc(-c3ccc(N4CCOCC4)cc3)cc3nccn23)cn1 [Example 116, 3-methyl-3-(4-(7-(4-morpholinophenyl)imidazo[1,2-c]pyrimidin-5-yl)-1H-pyrazol-1-yl)butanenitrile] | 10 to 100 | 100 to 1000 | 100 to 1000 | > 1000

Further lines, results first:

IC50 (Human Tyk2 kinase domain) [nM] | IC50 (JAK1) [nM] | IC50 (JAK2) [nM] | IC50 (JAK3) [nM] | Compound
< 10 | 100 to 1000 | 10 to 100 | > 1000 | CCn1cc(-c2cc3nccn3c(-c3cnn(C4(CC#N)CN(CC(F)(F)F)C4)c3)n2)cn1 [Example 104, 2-(3-(4-(7-(1-Ethyl-1H-pyrazol-4-yl)imidazo[1,2-c]pyrimidin-5-yl)-1H-pyrazol-1-yl)-1-(2,2,2-trifluoroethyl)azetidin-3-yl)acetonitrile]
100 to 1000 | > 1000 | 100 to 1000 | > 1000 | Cn1cc(-c2cc3nccn3c(-c3cnn(C4(CC#N)CN(Cc5ccccc5)C4)c3)n2)cn1 [Example 88, 2-(1-benzyl-3-(4-(7-(1-methyl-1H-pyrazol-4-yl)imidazo[1,2-c]pyrimidin-5-yl)-1H-pyrazol-1-yl)azetidin-3-yl)acetonitrile]
10 to 100 | 100 to 1000 | 100 to 1000 | > 1000 | Cc1ncc(-c2cc3nccn3c(-c3cnn(C4(CC#N)CN(CC(F)(F)F)C4)c3)n2)s1 [Example 102, 2-(3-(4-(7-(2-Methylthiazol-5-yl)imidazo[1,2-c]pyrimidin-5-yl)-1H-pyrazol-1-yl)-1-(2,2,2-trifluoroethyl)azetidin-3-yl)acetonitrile]
< 10 | 10 to 100 | 10 to 100 | 100 to 1000 | N#CCC1(n2cc(-c3nc(-c4cnn(C5CCC5)c4)cc4nccn34)cn2)CN(CC(F)(F)F)C1 [Example 103, 2-(3-(4-(7-(1-Cyclobutyl-1H-pyrazol-4-yl)imidazo[1,2-c]pyrimidin-5-yl)-1H-pyrazol-1-yl)-1-(2,2,2-trifluoroethyl)azetidin-3-yl)acetonitrile]
< 10 | 10 to 100 | 10 to 100 | 100 to 1000 | CN1CCC(c2ccc(-c3cc4nccn4c(-c4cnn(C(CC#N)C5CCCC5)c4)n3)cc2)CC1 (centres unmarked) [Example 110, 3-Cyclopentyl-3-(4-(7-(4-(1-methylpiperidin-4-yl)phenyl)imidazo[1,2-c]pyrimidin-5-yl)-1H-pyrazol-1-yl)propanenitrile]
100 to 1000 | > 1000 | 100 to 1000 | > 1000 | Cc1nn(CCC#N)cc1-c1nc(-c2cnn(C)c2)cc2nccn12 [Example 106, 3-(3-methyl-4-(7-(1-methyl-1H-pyrazol-4-yl)imidazo[1,2-c]pyrimidin-5-yl)-1H-pyrazol-1-yl)propanenitrile]
10 to 100 | > 1000 | 100 to 1000 | > 1000 | N#CCC(C1CC1)n1cc(-c2nc(-c3cnco3)cc3nccn23)cn1 (centres unmarked) [Example 43, 3-cyclopropyl-3-(4-(7-(oxazol-5-yl)imidazo[1,2-c]pyrimidin-5-yl)-1H-pyrazol-1-yl)propanenitrile]
